The test system of one data set is HCT-116. Kind of data set: Cytotoxicity against human HCT-116 cells incubated for 72 hrs by MTT assay. Type of data set: functional. (Tetrazolium assays rely on reduction of a dye to a coloured formazan, in cell work by metabolically active cells.)
The test system of a further data set is MDA-MB-231. Briefly: Cytotoxicity against human MDA-MB-231 cells incubated for 72 hrs by MTT assay. It is filed as functional.
In another data set the test system is HepG2. Briefly: Cytotoxicity against human HepG2 cells incubated for 72 hrs by MTT assay. It is filed as functional.
For the next data set, the system named is PC-3. Briefly: Cytotoxicity against human PC-3 cells incubated for 72 hrs by MTT assay. It is filed as functional.
Data set [1] is described as follows: Cytotoxicity against human Mel-MS cells incubated for 72 hrs by MTT assay. Type of data set: functional.
The next data set has as its system MDA-MB-453. Briefly: Cytotoxicity against human MDA-MB-453 cells incubated for 72 hrs by MTT assay. Type of data set: functional.
Data set [2] can be described thus: Cytotoxicity against human HeLa-V cells incubated for 72 hrs by MTT assay. It is filed as functional.
Data set [3] can be described thus: Cytotoxicity against HEK293 cells incubated for 72 hrs by MTT assay. Type of data set: toxicity, cell-based. To be noted: human.
For a further data set, the system named is A549. Briefly: Cytotoxicity against human A549 cells incubated for 72 hrs by MTT assay. Type of data set: functional.
Data set [4] in a line: Cytotoxicity against human MCF-10A cells incubated for 72 hrs by MTT assay. It is filed as toxicity, cell-based.
The next data set relates to MCF7. Kind of data set: Cytotoxicity against human MCF7 cells incubated for 72 hrs by MTT assay. It is filed as functional.
A further data set has as its system RD. Kind of data set: Cytotoxicity against human RD cells incubated for 72 hrs by MTT assay. Type of data set: functional.
Data set [5] addresses Tyrosyl-DNA phosphodiesterase 1 (Homo sapiens, UniProt Q9NUW8). Briefly: Inhibition of Tdp1 (unknown origin) using 5'-[FAM]AACGTCAGGGTCTTCC[BHQ1]-3' as substrate measured every 55 sec by fluorescence based analysis.

Molecules are shown by their SMILES. pIC50: −log10 of the molar value.

By CC50 is commonly meant the concentration that lowers cell viability or growth by half. Read a low CC50 as harm at low concentration. By pIC50 is commonly meant the IC50 on a negative log10 scale, so that one unit is a factor of ten. A higher pIC50 goes with a small IC50.

Tyrosyl-DNA phosphodiesterase 1, sequence (Q9NUW8 whole entry): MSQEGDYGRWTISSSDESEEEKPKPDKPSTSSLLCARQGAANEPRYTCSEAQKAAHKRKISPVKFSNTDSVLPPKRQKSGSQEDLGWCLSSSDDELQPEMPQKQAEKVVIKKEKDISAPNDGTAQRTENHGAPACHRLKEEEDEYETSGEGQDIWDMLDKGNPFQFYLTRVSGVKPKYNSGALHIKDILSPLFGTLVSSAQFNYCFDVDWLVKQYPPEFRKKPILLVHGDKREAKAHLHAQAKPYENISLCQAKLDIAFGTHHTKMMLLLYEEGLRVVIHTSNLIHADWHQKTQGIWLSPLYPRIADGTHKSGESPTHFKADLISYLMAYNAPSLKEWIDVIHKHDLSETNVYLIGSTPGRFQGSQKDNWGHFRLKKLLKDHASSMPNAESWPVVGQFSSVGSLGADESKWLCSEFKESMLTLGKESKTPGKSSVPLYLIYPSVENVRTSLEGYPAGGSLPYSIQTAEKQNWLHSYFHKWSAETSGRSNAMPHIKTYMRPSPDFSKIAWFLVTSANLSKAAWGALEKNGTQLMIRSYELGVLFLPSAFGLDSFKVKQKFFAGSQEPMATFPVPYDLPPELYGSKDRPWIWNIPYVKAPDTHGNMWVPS

Take `COc1cccc2c1C(=O)c1c(O)c3c(c(O)c1C2=O)C[C@@](O)(C(=O)CO)C[C@@H]3O[C@H]1C[C@H](N)[C@H](O)[C@H](C)O1` [DOXORUBICIN]: the 50% cytotoxic concentration (CC50) with HCT-116 was 1.3 µM; in the data set with MDA-MB-231, 0.34 µM; in the data set with HepG2, 1.8 µM; in the data set on PC-3 it was 12.6 µM; in [1], 1.3 µM; in the data set with MDA-MB-453, 0.04 µM. The CC50 in data set [2] is 2.67 µM; in the data set on A549 it was 2 µM; in the data set on MCF7, 0.4 µM; in the data set with RD, 1.3 µM. For the same compound, the CC50 at 72 h in data set [3] was 0.4 µM; in data set [4], 0.5 µM.
Take `CC(C)[C@@H]1CC[C@]2(COC(=O)c3ccccc3)CC[C@]3(C)[C@H](CC[C@@H]4[C@@]5(C)/C(=N/O)C[C@@H](O)C(C)(C)[C@@H]5CC[C@]43C)[C@@H]12`: the CC50 (in the data set on HCT-116; with MDA-MB-231; with HepG2; in the data set with PC-3; in data set [1]; in the data set on MDA-MB-453) was greater than 100 µM throughout. Further, the CC50 in [2] was greater than 100 µM; in the data set on A549, 57.7 µM; with MCF7 it was greater than 100 µM; with RD, greater than 100 µM. The CC50 at 72 h in data set [3] and in data set [4] was greater than 100 µM each time. For the same compound, the pIC50 in data set [5] was 5.54.
Take `CC(C)[C@@H]1CC[C@]2(COC(=O)c3ccccc3)CC[C@]3(C)[C@H](CC[C@@H]4[C@@]5(C)CC[C@H](O)C(C)(C)[C@@H]5CC[C@]43C)[C@@H]12`: the CC50 (in the data set on HCT-116; in the data set with MDA-MB-231; with HepG2; with PC-3; in [1]; in the data set with MDA-MB-453) was greater than 100 µM in each case. Also, the cytotoxic concentration (CC50) (in data set [2]; in the data set on A549; in the data set on MCF7; with RD) was greater than 100 µM each time. In addition, the CC50 at 72 h in data set [3] and in [4] was greater than 100 µM throughout.
On to `CC(C)[C@@H]1CC[C@]2(COC(=O)c3ccccc3)CC[C@]3(C)[C@H](CC[C@@H]4[C@@]5(C)O[C@H](CC#N)C(C)(C)[C@@H]5CC[C@]43C)[C@@H]12`, for which the CC50 (in the data set with HCT-116; in the data set on MDA-MB-231; in the data set on HepG2; with PC-3; in [1]; in the data set with MDA-MB-453) was greater than 100 µM in each case. The CC50 (in data set [2]; in the data set on A549; in the data set with MCF7; in the data set on RD) was greater than 100 µM throughout. For the same compound, the CC50 at 72 h in data set [3] and in data set [4] was greater than 100 µM throughout. Also, in data set [5], the pIC50 was 4.92.
In the case of `CC(C)[C@@H]1CC[C@]2(COC(=O)c3ccccc3)CC[C@]3(C)[C@H](CC[C@@H]4[C@@]5(C)CC=CC(C)(C)[C@@H]5CC[C@]43C)[C@@H]12`, the CC50 (with HCT-116; in the data set with MDA-MB-231; with HepG2; with PC-3; in data set [1]; in the data set on MDA-MB-453) was greater than 100 µM throughout. Moreover, the CC50 (in data set [2]; with A549; with MCF7; in the data set with RD) was greater than 100 µM throughout. The CC50 at 72 h in data set [3] and in data set [4] was greater than 100 µM each time. In data set [5], this compound showed a pIC50 of less than 4.00.
With `CC(C)[C@@H]1CC[C@]2(COC(=O)c3ccccc3)CC[C@]3(C)[C@H](CC[C@@H]4[C@@]5(C)[C@@H](O)C=CC(C)(C)[C@@H]5CC[C@]43C)[C@@H]12`, the CC50 (in the data set on HCT-116; in the data set on MDA-MB-231; in the data set with HepG2; in the data set with PC-3; in data set [1]; in the data set with MDA-MB-453) was greater than 100 µM in each case. Further, the CC50 (in [2]; with A549; in the data set on MCF7; in the data set on RD) was greater than 100 µM throughout. The CC50 at 72 h in data set [3] and in data set [4] was greater than 100 µM throughout. Moreover, in [5], the negative logarithm of the IC50 (pIC50) is 5.05.
In the case of `CC(C)[C@@H]1CC[C@]2(COC(=O)c3ccccc3)CC[C@]3(C)[C@H](CC[C@@H]4[C@@]5(C)OC(CC#N)C(C)(C)[C@@H]5CC[C@]43C)[C@@H]12` (mixture of isomers), the CC50 (in the data set with HCT-116; with MDA-MB-231; with HepG2; with PC-3; in data set [1]; in the data set with MDA-MB-453) was greater than 100 µM in each case. Also, the CC50 in [2] is greater than 100 µM; in the data set on A549, 58.6 µM; in the data set on MCF7, greater than 100 µM; in the data set with RD, greater than 100 µM. Besides, the CC50 at 72 h in [3] and in data set [4] was greater than 100 µM throughout. For the same compound, in [5], the negative-log IC50 (pIC50) was 5.15.
Turning to `CC(C)[C@@H]1CC[C@]2(COCc3ccccc3)CC[C@]3(C)[C@H](CC[C@@H]4C(=O)C(C(C)(C)[C@H](CC#N)OC(=O)Cl)CC[C@]43C)[C@@H]12` (some centres undefined), the CC50 (with HCT-116; in the data set with MDA-MB-231; in the data set on HepG2; with PC-3; in data set [1]; with MDA-MB-453) was greater than 100 µM throughout. Besides, the CC50 was greater than 100 µM in data set [2], 56.9 µM in the data set on A549, greater than 100 µM in the data set with MCF7 and greater than 100 µM with RD. The CC50 at 72 h in [3] and in [4] was greater than 100 µM in each case. Further, in [5], the pIC50 was 4.92.
For the compound `CC(C)[C@@H]1CC[C@]2(COC(=O)c3ccccc3)CC[C@]3(C)[C@H](CC[C@@H]4[C@@]5(C)C(=O)[C@H]6O[C@H]6C(C)(C)[C@@H]5CC[C@]43C)[C@@H]12`, the CC50 (in the data set on HCT-116; in the data set with MDA-MB-231; with HepG2; in the data set with PC-3; in data set [1]; in the data set with MDA-MB-453) was greater than 100 µM each time. The half-maximal cytotoxic concentration (CC50) (in [2]; with A549; in the data set on MCF7; with RD) was greater than 100 µM each time. The CC50 at 72 h in [3] and in [4] was greater than 100 µM throughout. In [5], this compound showed a pIC50 of 5.52.
For the compound `CC1(C)CC[C@]23CC[C@]4(C)[C@H](CC[C@@H]5[C@@]6(C)O[C@H](CC#N)C(C)(C)[C@@H]6CC[C@]54C)[C@H]2[C@H]1OC3`, the CC50 is 90.3 µM in the data set with HCT-116; greater than 100 µM in the data set with MDA-MB-231; greater than 100 µM with HepG2; greater than 100 µM with PC-3; greater than 100 µM in [1]; greater than 100 µM in the data set on MDA-MB-453. Further, the CC50 was greater than 100 µM in data set [2], 34 µM in the data set on A549, 84.9 µM in the data set on MCF7 and greater than 100 µM in the data set on RD. Further, the cytotoxic concentration (CC50) at 72 h in data set [3] and in [4] was greater than 100 µM in each case. Also, in [5], the pIC50 was 5.44.
For `C=C1[C@H]2CC[C@@H]3[C@H]4[C@H](C(C)C)CC[C@]4(COC(=O)c4ccccc4)CC[C@@]3(C)[C@]2(C)CC[C@@H]1C(C)(C)[C@@H]1O[C@H]1C#N`, the CC50 (with HCT-116; in the data set with MDA-MB-231; with HepG2; in the data set on PC-3; in [1]; with MDA-MB-453) was greater than 100 µM throughout. Also, the CC50 (in data set [2]; in the data set on A549; in the data set on MCF7; in the data set with RD) was greater than 100 µM throughout. Further, the CC50 at 72 h in [3] and in data set [4] was greater than 100 µM in each case. This compound had a pIC50 in data set [5] of 5.10.
Consider `CC1(C)CC[C@]23CC[C@]4(C)C(CC[C@@H]5C(=O)C(C(C)(C)[C@H](CC#N)OC(=O)Cl)CC[C@]54C)[C@H]2[C@H]1OC3` (some centres undefined), for which the CC50 (in the data set with HCT-116; with MDA-MB-231; in the data set on HepG2; in the data set with PC-3; in data set [1]; with MDA-MB-453) was greater than 100 µM in each case. Moreover, the 50% cytotoxic concentration (CC50) (in data set [2]; in the data set on A549; in the data set with MCF7; with RD) was greater than 100 µM in each case. Besides, the CC50 at 72 h in [3] and in [4] was greater than 100 µM in each case. In [5], this compound had a pIC50 of less than 4.00.
As to `CC(C)[C@@H]1CC[C@]2(CO)CC[C@]3(C)[C@H](CC[C@@H]4[C@@]5(C)/C(=N/O)C[C@@H](O)C(C)(C)[C@@H]5CC[C@]43C)[C@@H]12`, the CC50 was 57.4 µM in the data set on HCT-116; greater than 100 µM in the data set with MDA-MB-231; greater than 100 µM with HepG2; greater than 100 µM in the data set with PC-3; greater than 100 µM in data set [1]; greater than 100 µM with MDA-MB-453. Also, the CC50 (in data set [2]; in the data set with A549; with MCF7; in the data set on RD) was greater than 100 µM in each case. The CC50 at 72 h in data set [3] and in data set [4] was greater than 100 µM each time. In addition, in data set [5], the pIC50 is 5.54.
With `CC[C@@]1(O)C(=O)OCc2c1cc1n(c2=O)Cc2cc3c(CN(C)C)c(O)ccc3nc2-1` [TOPOTECAN], the CC50 in data set [2] is 0.456 µM.
For `CC1(C)CC[C@]23CC[C@]4(C)[C@H](CC[C@@H]5[C@@]6(C)O[C@@H](CC#N)C(C)(C)[C@@H]6CC[C@]54C)[C@H]2[C@H]1OC3`, in data set [5], the pIC50 was 5.10.
